Patent US20190029257A1, “APPLICATION FOR HERBICIDE-TOLERANT PROTEIN” (BEIJING DABEINONG TECHNOLOGY GROUP CO., LTD., priority 2016, published 2019)

Columns and labels:
Format in all cases: in vivo
[1] = system: Gm chloroplastic ALT-1-01 soybean plants; experiment: Halosulfuron-methyl tolerance of soybean plants (damage degree); conditions: 34 g ai/ha (1x Hal.); for Average damage % 3 DAT: 3 days after spraying; for Average damage % 7 DAT: 7 days after spraying; for Average damage % 14 DAT: 14 days after spraying; for Average damage % 21 DAT: 21 days after spraying
From the text: (§1) The herbicide tolerance effects of Gm cytoplasmic ALT-1-01 soybean plants, Gm chloroplastic ALT-1-01 soybean plants, Gm cytoplasmic ALT-2-01 soybean plants, Gm chloroplastic ALT-2-01 soybean plants, Gm cytoplasmic ALT-3-01 soybean plants, Gm chloroplastic ALT-3-01 soybean plants and wild-type soybean plants on halosulfuron-methyl were detected (at seedling stage), respectively.
(§2) Gm cytoplasmic ALT-1-01 soybean plants, Gm chloroplastic ALT-1-01 soybean plants, Gm cytoplasmic ALT-2-01 soybean plants, Gm chloroplastic ALT-2-01 soybean plants, Gm cytoplasmic ALT-3-01 soybean plants, Gm chloroplastic ALT-3-01 soybean plants and wild-type soybean plants were respectively taken and sprayed with halosulfuron-methyl (34 g ai/ha, 1-fold field concentration) and a blank solvent (water). The damage degree caused by the herbicide was measured for each plant according to the leaf curl degree and the growth point damage degree 3 days after spraying (3 DAT), 7 days after spraying (7 DAT), 14 days after spraying (14 DAT) and 21 days after spraying (21 DAT), respectively: considering conditions of leaves being flat as the untreated plants and growth points being intact as having a damage degree of 0%; considering conditions of veins being locally browned, new leaves being malformed and plant growth being slow as having a damage degree of 50%; and considering conditions of veins being purple to whole plant being dead and growth points being browned and dry as having a damage degree of 100%. There were 2 strains in Gm cytoplasmic ALT-1-01 soybean plants in total (S1 and S2), 2 strains in Gm chloroplastic ALT-1-01 soybean plants in total (S3 and S4), 2 strains in Gm cytoplasmic ALT-2-01 soybean plants in total (S5 and S6), 2 strains in Gm chloroplastic ALT-2-01 soybean plants in total (S7 and S8), 2 strains in Gm cytoplasmic ALT-3-01 soybean plants in total (S9 and S10), 2 strains in Gm chloroplastic ALT-3-01 soybean plants in total (S11 and S12), and 1 strain in wild-type soybean plants (CK1) in total; and 10-15 plants were selected from each strain and tested.

[2] = system: Gm chloroplastic ALT-2-01 soybean plants; experiment: as above; conditions: 34 g ai/ha (1x Hal.); for Average damage % 3 DAT: 3 days after spraying; for Average damage % 7 DAT: 7 days after spraying; for Average damage % 14 DAT: 14 days after spraying; for Average damage % 21 DAT: 21 days after spraying
From the text: as §1, §2

[3] = system: Gm cytoplasmic ALT-1-01 soybean plants; experiment: as above; conditions: 34 g ai/ha (1x Hal.); for Average damage % 3 DAT: 3 days after spraying; for Average damage % 7 DAT: 7 days after spraying; for Average damage % 14 DAT: 14 days after spraying; for Average damage % 21 DAT: 21 days after spraying
From the text: as §1, §2

[4] = system: Gm cytoplasmic ALT-2-01 soybean plants; experiment: as above; conditions: 34 g ai/ha (1x Hal.); for Average damage % 3 DAT: 3 days after spraying; for Average damage % 7 DAT: 7 days after spraying; for Average damage % 14 DAT: 14 days after spraying; for Average damage % 21 DAT: 21 days after spraying
From the text: as §1, §2

[5] = system: Gm cytoplasmic ALT-3-01 soybean plants; experiment: as above; conditions: 34 g ai/ha (1-fold field concentration); for Average damage % 3 DAT: 3 days after spraying; for Average damage % 7 DAT: 7 days after spraying; for Average damage % 14 DAT: 14 days after spraying; for Average damage % 21 DAT: 21 days after spraying
From the text: as §1, §2

[6] = system: Zm cytoplasmic ALT-2-02 maize plants; experiment: Halosulfuron-methyl tolerance of maize plants (damage degree); conditions: 36 g ai/ha (4x Hal.); for Average damage % 3 DAT: 3 days after spraying; for Average damage % 7 DAT: 7 days after spraying; for Average damage % 14 DAT: 14 days after spraying; for Average damage % 21 DAT: 21 days after spraying
From the text: as §1, with “Zm” for “Gm”, “ALT-1-02 maize” for “ALT-1-01 soybean”, “ALT-2-02 maize” for “ALT-2-01 soybean”, “ALT-3-02 maize” for “ALT-3-01 soybean”, “maize” for “soybean”, “V3-V4” for “seedling”
Zm cytoplasmic ALT-1-02 maize plants, Zm chloroplastic ALT-1-02 maize plants, Zm cytoplasmic ALT-2-02 maize plants, Zm chloroplastic ALT-2-02 maize plants, Zm cytoplasmic ALT-3-02 maize plants, Zm chloroplastic ALT-3-02 maize plants and wild-type maize plants were respectively taken and sprayed with halosulfuron-methyl (36 g ai/ha, 4-fold field concentration) and a blank solvent (water). The damage degree caused by the herbicide was measured for each plant according to the plant growth status 3 days after spraying (3 DAT), 7 days after spraying (7 DAT), 14 days after spraying (14 DAT) and 21 days after spraying (21 DAT), respectively: considering a growth status equivalent to that of the untreated plants as having a damage degree of 0%; considering conditions of leaves being partially chlorotic and yellow but substantially not affecting the plant normal growth as having a damage degree of 50%; and considering the whole plant being purple and dying as having a damage degree of 100%. There were 2 strains in Zm cytoplasmic ALT-1-02 maize plants in total (S13 and S14), 2 strains in Zm chloroplastic ALT-1-02 maize plants in total (S15 and S16), 2 strains in Zm cytoplasmic ALT-2-02 maize plants in total (S17 and S18), 2 strains in Zm chloroplastic ALT-2-02 maize plants in total (S19 and S20), 2 strains in Zm cytoplasmic ALT-3-02 maize plants in total (S21 and S22), 2 strains in Zm chloroplastic ALT-3-02 maize plants in total (S23 and S24), and 1 strain in wild- type maize plants (CK2) in total; and 10-15 plants were selected from each strain and tested.

## COC(=O)c1c(Cl)nn(C)c1S(=O)(=O)NC(=O)Nc1nc(OC)cc(OC)n1 [halosulfuron-methyl, 3-chlorine-5-(4,6-dimethoxypyrimidine-2-aminocarbonylaminosulphonyl)-1-methylpyrazole-4-carboxylic acid methyl ester]
[1]; strain S3
  Average damage % 3 DAT: 10%
  Average damage % 7 DAT: 5%
  Average damage % 14 DAT: 0%
  Average damage % 21 DAT: 0%
[1]; strain S4
  Average damage % 3 DAT: 11%
  Average damage % 7 DAT: 5%
  Average damage % 14 DAT: 0%
  Average damage % 21 DAT: 0%
[2]; strain S7
  Average damage % 3 DAT: 10%
  Average damage % 7 DAT: 4%
  Average damage % 14 DAT: 0%
  Average damage % 21 DAT: 0%
[2]; strain S8
  Average damage % 3 DAT: 9%
  Average damage % 7 DAT: 5%
  Average damage % 14 DAT: 0%
  Average damage % 21 DAT: 0%
[3]; strain S1
  Average damage % 3 DAT: 13%
  Average damage % 7 DAT: 7%
  Average damage % 14 DAT: 0%
  Average damage % 21 DAT: 0%
[3]; strain S2
  Average damage % 3 DAT: 12%
  Average damage % 7 DAT: 6%
  Average damage % 14 DAT: 0%
  Average damage % 21 DAT: 0%
[4]; strain S5
  Average damage % 3 DAT: 14%
  Average damage % 7 DAT: 6%
  Average damage % 14 DAT: 0%
  Average damage % 21 DAT: 0%
[4]; strain S6
  Average damage % 3 DAT: 12%
  Average damage % 7 DAT: 6%
  Average damage % 14 DAT: 0%
  Average damage % 21 DAT: 0%
[5]; strain S9
  Average damage % 3 DAT: 13%
  Average damage % 7 DAT: 6%
  Average damage % 14 DAT: 0%
  Average damage % 21 DAT: 0%
[5]; strain S10
  Average damage % 3 DAT: 12%
  Average damage % 7 DAT: 5%
  Average damage % 14 DAT: 0%
  Average damage % 21 DAT: 0%
[6]; strain S17
  Average damage % 3 DAT: 0%
  Average damage % 7 DAT: 3%
  Average damage % 14 DAT: 0%
  Average damage % 21 DAT: 0%
[6]; strain S18
  Average damage % 3 DAT: 0%
  Average damage % 7 DAT: 2%
  Average damage % 14 DAT: 0%
  Average damage % 21 DAT: 0%
